Reference: ChEMBL document CHEMBL1201862, “PubChem BioAssay data set” (2004)
The source made the active and inactive calls. For most assays here, no stated cut-off is given here; in the data, actives have a measured EC50 and inactives only a lower limit.

How the values were obtained:
[1] = target: T1, Corticotropin-releasing factor receptor 2/Corticotropin-releasing factor-binding protein (Homo sapiens, UniProt P24387+Q13324); assay: activators of CRF receptor 2 with binding protein – uHTS hits, confirmation (AID 602473); assay type: functional; details: read-out: EC50_Mean
T1 sequence (Q13324 whole entry): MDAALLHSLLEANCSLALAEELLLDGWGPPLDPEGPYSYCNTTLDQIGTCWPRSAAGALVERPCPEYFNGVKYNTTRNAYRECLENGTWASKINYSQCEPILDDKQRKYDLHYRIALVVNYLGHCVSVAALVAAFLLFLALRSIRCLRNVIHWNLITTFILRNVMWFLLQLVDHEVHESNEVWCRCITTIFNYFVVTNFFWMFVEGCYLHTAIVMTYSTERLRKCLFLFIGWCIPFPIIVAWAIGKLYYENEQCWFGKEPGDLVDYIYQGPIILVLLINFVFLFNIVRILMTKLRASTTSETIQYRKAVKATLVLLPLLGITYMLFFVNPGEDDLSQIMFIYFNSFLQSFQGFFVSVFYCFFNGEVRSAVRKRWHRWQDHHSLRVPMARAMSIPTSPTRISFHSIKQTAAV
T1 sequence (P24387 whole entry): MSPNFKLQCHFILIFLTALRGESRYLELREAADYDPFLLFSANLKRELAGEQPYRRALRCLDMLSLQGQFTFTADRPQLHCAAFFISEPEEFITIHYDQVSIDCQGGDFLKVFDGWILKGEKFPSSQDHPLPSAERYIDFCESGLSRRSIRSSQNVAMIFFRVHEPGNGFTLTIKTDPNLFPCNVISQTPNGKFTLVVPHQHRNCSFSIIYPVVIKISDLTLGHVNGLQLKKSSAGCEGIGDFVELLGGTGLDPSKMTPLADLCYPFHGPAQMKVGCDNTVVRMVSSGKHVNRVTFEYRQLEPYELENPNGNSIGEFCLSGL

[2] = target: T1, Corticotropin-releasing factor receptor 2/Corticotropin-releasing factor-binding protein; assay: Dose Response confirmation of uHTS hits for small molecule antagonists of the CRF-binding protein and CRF-R2 receptor complex.; assay type: functional; details: read-out: IC50_Mean
[3] = target: T2, RNA-binding protein pos-1 (Caenorhabditis elegans, UniProt G5EF15); assay: disruptors of C. elegans POS-1 RNA interaction – biochemical, fluorescence polarization, dose response (AID 1964);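 further: purified POS-1 fused to maltose binding protein made in E. coli; potency of compounds blocking POS-1 binding to fluorescent RNA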
T2 sequence (G5EF15 whole entry): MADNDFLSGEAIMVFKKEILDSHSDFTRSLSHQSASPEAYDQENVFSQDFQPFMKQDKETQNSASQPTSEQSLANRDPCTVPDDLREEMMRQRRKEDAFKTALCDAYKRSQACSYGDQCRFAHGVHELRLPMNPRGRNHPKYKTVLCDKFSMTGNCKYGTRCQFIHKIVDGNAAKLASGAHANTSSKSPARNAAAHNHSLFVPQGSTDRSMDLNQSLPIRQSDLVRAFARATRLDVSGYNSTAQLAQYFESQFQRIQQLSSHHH

[4] = target: T3, Zinc finger protein mex-5 (Caenorhabditis elegans, UniProt Q9XUB2); assay: potency of MEX-5 RNA-binding blockers – biochemical, C. elegans, fluorescence polarization, dose response (AID 1960)
T3 sequence (Q9XUB2 whole entry): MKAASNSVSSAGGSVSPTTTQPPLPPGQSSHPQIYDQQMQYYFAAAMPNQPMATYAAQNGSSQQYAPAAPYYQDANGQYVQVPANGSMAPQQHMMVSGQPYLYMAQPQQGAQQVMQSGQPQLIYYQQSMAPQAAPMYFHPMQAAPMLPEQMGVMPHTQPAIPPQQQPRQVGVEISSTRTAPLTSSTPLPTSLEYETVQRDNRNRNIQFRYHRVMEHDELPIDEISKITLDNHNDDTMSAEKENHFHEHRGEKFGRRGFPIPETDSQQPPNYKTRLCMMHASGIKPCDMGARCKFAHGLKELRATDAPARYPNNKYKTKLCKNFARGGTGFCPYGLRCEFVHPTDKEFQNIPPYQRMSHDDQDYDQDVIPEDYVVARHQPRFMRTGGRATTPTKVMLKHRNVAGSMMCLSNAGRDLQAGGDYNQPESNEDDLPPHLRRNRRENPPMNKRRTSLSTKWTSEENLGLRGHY

Streptococcus = assay: GAS UMAA2166 growth inhibition – luminescence, BacTiterGlo, counter-screen for streptokinase expression inhibitor project, dose response (AID 1915); assay type: functional, organism-based;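 further: potency for reduction of bacterial viability or growth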
Streptokinase A = target: T4, Streptokinase A (Streptococcus pyogenes serotype M1, UniProt P10520); assay: viability-normalized secreted streptokinase activity reduction – plasminogen activation absorbance, OD405, dose response (AID 1914); assay type: functional, Streptococcus pyogenes M1 GAS;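 further: secreted streptokinase activity via plasminogen activation per viability signal from cell pellet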
T4 sequence (P10520 whole entry): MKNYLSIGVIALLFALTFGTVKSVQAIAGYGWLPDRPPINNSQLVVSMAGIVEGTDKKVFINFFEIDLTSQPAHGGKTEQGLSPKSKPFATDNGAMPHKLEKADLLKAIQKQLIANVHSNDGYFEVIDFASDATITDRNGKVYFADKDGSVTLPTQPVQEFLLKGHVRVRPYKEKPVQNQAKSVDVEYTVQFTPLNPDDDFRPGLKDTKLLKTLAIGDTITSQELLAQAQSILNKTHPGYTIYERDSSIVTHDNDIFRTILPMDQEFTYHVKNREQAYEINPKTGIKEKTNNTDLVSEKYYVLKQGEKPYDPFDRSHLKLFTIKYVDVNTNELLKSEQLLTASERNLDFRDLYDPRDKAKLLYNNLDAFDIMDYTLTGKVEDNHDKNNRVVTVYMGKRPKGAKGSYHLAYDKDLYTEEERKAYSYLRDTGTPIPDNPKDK

[5] = test system: Streptococcus sp. 'group A'; assay: Streptococcus pyogenes SK(-)GAS viability under kanamycin – luminescence, BacTiterGlo, confirmation, counter-screen for streptokinase expression inhibitor project, dose response (AID 1900); assay type: functional, organism-based
[6] = target: T5, Replicative DNA helicase DnaB (Mycobacterium tuberculosis, UniProt P9WMR3); assay: DnaB intein splicing inhibitors, dose response, biochemical, cell-free fluorescence (AID 449749); assay type: functional
T5 sequence (P9WMR3 whole entry): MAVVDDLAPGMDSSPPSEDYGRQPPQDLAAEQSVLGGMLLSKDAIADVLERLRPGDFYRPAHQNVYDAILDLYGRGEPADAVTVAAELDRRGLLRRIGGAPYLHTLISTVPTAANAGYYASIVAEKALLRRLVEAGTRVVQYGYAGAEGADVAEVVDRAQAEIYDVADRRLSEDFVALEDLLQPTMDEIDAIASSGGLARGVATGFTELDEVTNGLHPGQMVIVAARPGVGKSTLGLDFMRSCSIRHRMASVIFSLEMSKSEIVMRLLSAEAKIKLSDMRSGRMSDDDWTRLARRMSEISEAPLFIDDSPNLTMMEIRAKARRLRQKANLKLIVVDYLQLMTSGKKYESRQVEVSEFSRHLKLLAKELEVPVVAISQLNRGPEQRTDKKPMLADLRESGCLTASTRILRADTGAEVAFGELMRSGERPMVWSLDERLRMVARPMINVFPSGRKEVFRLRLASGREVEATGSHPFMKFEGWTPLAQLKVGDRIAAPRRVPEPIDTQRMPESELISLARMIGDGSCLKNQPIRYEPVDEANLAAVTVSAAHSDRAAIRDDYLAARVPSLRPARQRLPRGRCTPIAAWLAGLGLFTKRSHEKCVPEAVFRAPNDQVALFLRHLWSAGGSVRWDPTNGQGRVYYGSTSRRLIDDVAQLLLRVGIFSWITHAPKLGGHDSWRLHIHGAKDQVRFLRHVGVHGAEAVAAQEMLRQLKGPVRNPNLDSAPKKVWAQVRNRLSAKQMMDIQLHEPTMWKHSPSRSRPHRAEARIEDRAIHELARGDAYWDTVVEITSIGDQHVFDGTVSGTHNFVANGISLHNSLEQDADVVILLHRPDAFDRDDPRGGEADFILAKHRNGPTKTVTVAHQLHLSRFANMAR

[7] = non-specific 3'UTR reporter inhibition in Clone20-Shn3RL – cell-based, Renilla luciferase, cherry-picked, counter-screen for Shn3 inhibitor project, dose response (AID 624133); assay type: functional
[8] = target: Heat shock protein HSP 90-alpha (Homo sapiens, UniProt P07900); assay type: functional, organism-based
Protein RecA = target: T6, Protein RecA (Mycobacterium tuberculosis, UniProt P9WHJ3); assay: Fluorescence Cell-Free Homogeneous Dose Retest to Identify Inhibitors of RecA-Intein Splicing Activity. [Related pubchem assays (depositor defined):AID2097, AID2223, AID489010, AID492950]; assay type: functional
T6 sequence (P9WHJ3 whole entry): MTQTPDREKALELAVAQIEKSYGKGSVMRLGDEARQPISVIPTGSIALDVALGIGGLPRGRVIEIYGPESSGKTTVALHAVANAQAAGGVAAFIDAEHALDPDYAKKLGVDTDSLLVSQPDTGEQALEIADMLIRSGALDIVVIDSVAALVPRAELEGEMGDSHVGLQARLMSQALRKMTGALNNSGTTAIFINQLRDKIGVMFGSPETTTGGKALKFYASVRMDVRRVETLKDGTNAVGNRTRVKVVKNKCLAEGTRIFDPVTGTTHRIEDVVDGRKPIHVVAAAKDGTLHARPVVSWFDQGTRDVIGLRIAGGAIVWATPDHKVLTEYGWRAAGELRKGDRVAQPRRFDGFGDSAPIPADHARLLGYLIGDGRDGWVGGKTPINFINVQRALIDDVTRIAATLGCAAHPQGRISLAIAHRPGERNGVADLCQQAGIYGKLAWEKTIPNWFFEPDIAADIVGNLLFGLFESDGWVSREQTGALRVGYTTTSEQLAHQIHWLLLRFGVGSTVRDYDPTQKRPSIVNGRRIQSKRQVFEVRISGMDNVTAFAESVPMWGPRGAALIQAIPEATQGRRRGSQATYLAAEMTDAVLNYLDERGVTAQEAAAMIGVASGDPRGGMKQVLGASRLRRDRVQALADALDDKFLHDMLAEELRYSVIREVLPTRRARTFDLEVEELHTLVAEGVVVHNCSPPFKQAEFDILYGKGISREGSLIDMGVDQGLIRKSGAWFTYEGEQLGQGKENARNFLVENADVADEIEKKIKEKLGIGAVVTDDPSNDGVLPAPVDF

[9] = NIH-3T3 fibroblast cytotoxicity, dose response, cytotoxicity control, cell-based, fluorescence, Alamar Blue, secondary assay (AID 2327); assay type: functional;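 further: NIH-3T3 mouse fibroblasts cultured with fluconazole at 8 µg/mL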
[10] = loss of viability in HepG2 cells – cell-based, CellTiter-Glo, cherry-picked, cytotoxicity control for Shn3 inhibitor project, dose response (AID 624134); assay type: functional
[11] = reduction of Shn3 3'UTR-driven luciferase in osteoblasts – cell-based, Clone20 osteoblasts, firefly luciferase, cherry-picked, dose response (AID 624132); assay type: functional;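 further: firefly luciferase luminescence from reporter carrying the Shn3 3'UTR in osteoblasts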
[12] = fluconazole-exposed Candida albicans growth modulators – fluorescence, retest, confirmation (AID 2467); assay type: functional, cell-based
[13] = target: T7, Ubiquitin-conjugating enzyme E2 N (Homo sapiens, UniProt P61088); assay type: functional;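 further: Dose-response confirmation in a TR-FRET assay detecting UBC13-driven polyubiquitin chain formation, inhibition measured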
T7 sequence (P61088 whole entry): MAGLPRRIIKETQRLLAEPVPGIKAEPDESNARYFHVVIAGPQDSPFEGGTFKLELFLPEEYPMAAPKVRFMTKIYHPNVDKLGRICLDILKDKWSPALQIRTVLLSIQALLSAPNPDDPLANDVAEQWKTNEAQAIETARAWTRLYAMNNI

[14] = Luminescence Cell-Based Dose Retest to Confirm Inhibitors of Cancer Stem Cells. [Related pubchem assays (depositor defined):AID2717, AID2721]; assay type: functional, Homo sapiens

CC1CCCN(CCCNC(=O)CN2C(=O)CSc3ccc(S(=O)(=O)N4CCOCC4)cc32)C1 (configuration not stated)
EC50 [1]: > 53 µM (inactive) | IC50 [2]: > 47.1 µM (inactive)

CC1CCN(c2nc3ccccc3nc2C(C#N)C(=O)NC2CCCCC2)CC1 (configuration not stated)
EC50 [3]: > 300 µM (not active) | EC50 [4]: > 300 µM (not active) | EC50 (Streptococcus): 18.3 µM (active) | EC50 (Streptokinase A): 26.2 µM (active) | EC50 ([5]; read-out: EC50): 7.52 µM (active)

CN1CCN(C(c2ccc(Br)cc2)c2cc(Cl)c3cccnc3c2O)CC1 (configuration not stated)
AC50 [6]: 14.3 µM (active) | AC50 [7]: 6.28 µM (active) | AC50 [8]: 0.609 µM (active) | EC50 (Protein RecA): 3.22 µM (active) | EC50 [9]: 4.78 µM (inconclusive) | AC50 [10]: 34.9 µM (active) | AC50 [11]: 3.61 µM (active) | EC50 [12]: 0.492 µM (active)

CCc1nnc(N=C(S)Nc2ccccc2)s1
EC50 [1]: > 53 µM (inactive) | IC50 [2]: > 47.1 µM (inactive)

CCOC(=O)/C=c1\s/c(=C\c2ccc(C#N)cc2)c(=O)n1CC(=O)NCc1ccco1
EC50 [3]: > 300 µM (not active) | EC50 [4]: > 300 µM (not active)

CN(C)c1ccc(-c2nnc(-c3ccc(S(=O)(=O)C(F)F)cc3)o2)cc1
EC50 [3]: 55.7 µM (inconclusive) | EC50 [4]: 31.4 µM (inconclusive)

Cc1c(CN2CCCCC2)c(O)n(CCCO)c(=O)c1C#N
EC50 [3]: > 300 µM (not active) | EC50 [4]: > 300 µM (not active)

O=C(C[n+]1nc(CNc2ccc(Br)cc2)n2c1CCCCC2)c1ccc([N+](=O)[O-])cc1
IC50 [13]: > 20 µM (inactive)

COc1cc(Cl)c(C)cc1NC(=O)CSc1ccc(C)cc1
EC50 [1]: > 53 µM (inactive) | IC50 [2]: > 47.1 µM (inactive)

C=CCNC(S)=NNC(=O)c1ccc(OCC)cc1
EC50 [1]: > 53 µM (inactive) | IC50 [2]: > 47.1 µM (inactive)

COc1ccc(OCC(=O)NNC(=S)NC(=O)c2ccc([N+](=O)[O-])cc2)cc1
IC50 [13]: > 20 µM (inactive)

CC(NC(=O)COC(=O)C1(C)CC1(Cl)Cl)c1ccccc1 (configuration not stated)
EC50 [1]: > 53 µM (inactive) | IC50 [2]: > 47.1 µM (inactive)

C=CCOn1c(=O)c(-c2cc3ccccc3o2)[n+]([O-])c2ccccc21
EC50 [3]: 28.3 µM (inconclusive) | EC50 [4]: 69.7 µM (inconclusive)

O=C1/C(=C/c2cccc([N+](=O)[O-])c2)CSc2ccc(Cl)cc21
IC50 [13]: > 20 µM (inactive)

CC/C(=C(\c1ccccc1)c1ccc(OCCN(C)C)cc1)c1ccccc1 [TAMOXIFEN]
IC50 [13]: > 20 µM (inactive) | EC50 (Streptococcus): 21.8 µM (active) | EC50 (Streptokinase A): > 150 µM (not active) | EC50 [5]: 6.5 µM (active) | AC50 [14]: 5.52 µM (active)

C#CCOCCOCCOCCNc1nc(N2CCN(C(=O)[C@H]([C@@H](C)CC)n3cc(CCCN=C(N)N)nn3)CC2)nc(N2CCN(C(=O)[C@H](CCCCN)n3cc(CCCC)nn3)CC2)n1
IC50 [13]: > 20 µM (inactive)

Cc1ccc(-n2c(Cl)c(Cl)[nH]c(=O)c2=O)cc1
EC50 [1]: > 53 µM (inactive) | IC50 [2]: > 47.1 µM (inactive)
